Measurements taken from PubChem BioAssay AID330 (DTP/NCI, 2004).
“And” between values parts separate entries of the source, which are not always exact repeats. Equal entries are not always repeated. Toxic doses and inconclusive results are not listed. The calls were made as follows: active = survival T/C of 150% or more; inactive = T/C below 125% in these data.

Tested on: P388 leukemia ip, CD2F1 mice, survival T/C
Assay: NCI In Vivo Anticancer Drug Screen. Data for tumor model P388 Leukemia (intraperitoneal) in CD2F1 (CDF1) mice
Details: endpoint: median survival time, higher = longer survival
How it was run: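 Mice carrying the transplanted tumor received test compound or vehicle. Survival was recorded in each group, and the value is the treated-group measurement divided by that of the vehicle-treated control group.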

[1] = dose: 50.0 mg/kg/injection, schedule: Q01DX009 (ip), vehicle: saline with Tween-80
[2] = dose: 100.0 mg/kg/injection, schedule: Q01DX009 (ip), vehicle: saline with Tween-80
[3] = dose: 25.0 mg/kg/injection, schedule: Q01DX009 (ip), vehicle: saline
[4] = dose: 60.0 mg/kg/injection, schedule: Q01DX005 (ip), vehicle: Klucel (hydroxypropylcellulose) (HPC)
[5] = dose: 120.0 mg/kg/injection, schedule: Q01DX005 (ip), vehicle: Klucel (hydroxypropylcellulose) (HPC)
[6] = dose: 240.0 mg/kg/injection, schedule: Q01DX005 (ip), vehicle: Klucel (hydroxypropylcellulose) (HPC)
[7] = dose: 60.0 mg/kg/injection, schedule: Q01DX005 (ip), vehicle: saline with Tween-80
[8] = dose: 120.0 mg/kg/injection, schedule: Q01DX005 (ip), vehicle: saline with Tween-80
[9] = dose: 240.0 mg/kg/injection, schedule: Q01DX005 (ip), vehicle: saline with Tween-80
[10] = dose: 50.0 mg/kg/injection, schedule: Q01DX005 (ip), vehicle: saline with Tween-80
[11] = dose: 100.0 mg/kg/injection, schedule: Q01DX005 (ip), vehicle: saline with Tween-80
[12] = dose: 200.0 mg/kg/injection, schedule: Q01DX005 (ip), vehicle: saline with Tween-80
[13] = dose: 100.0 mg/kg/injection, schedule: Q01DX009 (ip), vehicle: saline

Measured: T/C

CC(/C=C/c1ccccc1)=Nc1ccc(Cl)cc1
inactive: dose: 25.0 mg/kg/injection, schedule: Q01DX009 (ip), vehicle: saline with Tween-80 100 % of control and 107 % of control | [1] 100 % of control and 101 % of control and 107 % of control | [2] 100 % of control and 101 % of control | dose: 200.0 mg/kg/injection, schedule: Q01DX009 (ip), vehicle: saline with Tween-80 98 % of control

COc1c(COC(C)=O)ccc2c1C(=O)c1ccccc1C2=O
inactive: dose: 100.0 mg/kg/injection, schedule: Q04DX002 (ip), vehicle: Klucel (hydroxypropylcellulose) (HPC) 108 % of control | dose: 200.0 mg/kg/injection, schedule: Q04DX002 (ip), vehicle: Klucel (hydroxypropylcellulose) (HPC) 92 % of control | dose: 400.0 mg/kg/injection, schedule: Q04DX002 (ip), vehicle: Klucel (hydroxypropylcellulose) (HPC) 93 % of control

COc1nc(NC2OC(CO)C(O)C(O)C2O)c(/C=N/O)c(=O)n1C (stereo not drawn)
inactive: dose: 60.0 mg/kg/injection, schedule: Q01DX005 (ip), vehicle: saline 99 % of control | dose: 120.0 mg/kg/injection, schedule: Q01DX005 (ip), vehicle: saline 103 % of control | dose: 240.0 mg/kg/injection, schedule: Q01DX005 (ip), vehicle: saline 99 % of control

CN1C2CCC1C(CO)C(O)C2 (stereo not drawn)
inactive: dose: 50.0 mg/kg/injection, schedule: Q01DX005 (ip), vehicle: saline 98 % of control | dose: 100.0 mg/kg/injection, schedule: Q01DX005 (ip), vehicle: saline 103 % of control | dose: 200.0 mg/kg/injection, schedule: Q01DX005 (ip), vehicle: saline 107 % of control

NCC[Se]CC(N)C(=O)O (stereo not drawn)
inactive: dose: 6.25 mg/kg/injection, schedule: Q01DX009 (ip), vehicle: saline 101 % of control | dose: 12.5 mg/kg/injection, schedule: Q01DX009 (ip), vehicle: saline 100 % of control | [3] 101 % of control

S=c1nc(-c2nc(=S)[nH]c3c2CCCCC3)c2c([nH]1)CCCCC2
inactive: [4] 97 % of control | [5] 96 % of control | [6] 92 % of control

Cc1ccc(NC(=O)Oc2cc(C)c(Cl)c(C)c2Cl)c([N+](=O)[O-])c1
inactive: [1] 114 % of control | [2] 107 % of control

COc1cccc(/C=N/NC(=O)CNC(=O)Nc2cccc([N+](=O)[O-])c2)c1OC
inactive: [7] 90 % of control | [8] 89 % of control and 96 % of control | [9] 99 % of control and 100 % of control

CCCCCCCCCCCC(O)CCCC(O)CC(O)CC1CC2CC(CC(=O)O2)O1 (stereo not drawn)
inactive: dose: 4.0 mg/kg/injection, schedule: Q01DX009 (ip), vehicle: Klucel (hydroxypropylcellulose) (HPC) 100 % of control | dose: 8.0 mg/kg/injection, schedule: Q01DX009 (ip), vehicle: Klucel (hydroxypropylcellulose) (HPC) 99 % of control | dose: 16.0 mg/kg/injection, schedule: Q01DX009 (ip), vehicle: Klucel (hydroxypropylcellulose) (HPC) 95 % of control | dose: 32.0 mg/kg/injection, schedule: Q01DX009 (ip), vehicle: Klucel (hydroxypropylcellulose) (HPC) 95 % of control | dose: 64.0 mg/kg/injection, schedule: Q01DX009 (ip), vehicle: Klucel (hydroxypropylcellulose) (HPC) 94 % of control

O=C1C(C(=Nc2ccccc2Cl)c2ccccc2)=C(O)c2ccccc21
inactive: dose: 25.0 mg/kg/injection, schedule: Q04DX002 (ip), vehicle: saline with Tween-80 99 % of control | dose: 50.0 mg/kg/injection, schedule: Q04DX002 (ip), vehicle: saline with Tween-80 92 % of control | dose: 100.0 mg/kg/injection, schedule: Q04DX002 (ip), vehicle: saline with Tween-80 93 % of control

Cc1ccc(S(=O)(=O)N/N=C/c2cc([N+](=O)[O-])cc(I)c2O)cc1
inactive: dose: 12.5 mg/kg/injection, schedule: Q01DX005 (ip), vehicle: distilled water + Tween-80 102 % of control | dose: 25.0 mg/kg/injection, schedule: Q01DX005 (ip), vehicle: distilled water + Tween-80 109 % of control | dose: 50.0 mg/kg/injection, schedule: Q01DX005 (ip), vehicle: distilled water + Tween-80 98 % of control and 112 % of control | dose: 100.0 mg/kg/injection, schedule: Q01DX005 (ip), vehicle: distilled water + Tween-80 98 % of control and 102 % of control | dose: 200.0 mg/kg/injection, schedule: Q01DX005 (ip), vehicle: distilled water + Tween-80 122 % of control and 95 % of control | dose: 400.0 mg/kg/injection, schedule: Q01DX005 (ip), vehicle: distilled water + Tween-80 93 % of control

COC(=O)c1csc(-c2ccc(CO)o2)n1
inactive: [10] 105 % of control | [11] 98 % of control | [12] 93 % of control

COC(=O)c1c(-c2ccc(OC)c(OC)c2)cn(C)c1C
inactive: [10] 104 % of control | [11] 96 % of control | [12] 91 % of control

CC(=O)N(c1ccncc1)c1ccc([N+](=O)[O-])cc1
inactive: [7] 94 % of control | [8] 92 % of control | [9] 88 % of control

COc1ccc2nccc3c2c1NC(Cl)=C3
inactive: [4] 97 % of control | [5] 103 % of control | [6] 97 % of control

O=S(=O)(Nc1nccs1)c1ccc(NCc2c3ccccc3nc3cc(Cl)ccc23)cc1
inactive: [10] 88 % of control | [11] 88 % of control | [12] 97 % of control

BrCc1cn2ccccc2n1
inactive: [3] 92 % of control | dose: 50.0 mg/kg/injection, schedule: Q01DX009 (ip), vehicle: saline 100 % of control | [13] 104 % of control

C[C@]12CC[C@@H]3c4ccc(OCCCO)c([N+](=O)[O-])c4CC[C@H]3[C@@H]1CCC2=O
inactive: dose: 25.0 mg/kg/injection, schedule: Q01DX005 (ip), vehicle: saline with Tween-80 100 % of control | [10] 106 % of control | [11] 91 % of control | [12] 88 % of control

CC(=O)Nc1ccc(/C=N/Nc2ccc([N+](=O)[O-])cn2)cc1
inactive: [13] 86 % of control | dose: 200.0 mg/kg/injection, schedule: Q01DX009 (ip), vehicle: saline 90 % of control | dose: 400.0 mg/kg/injection, schedule: Q01DX009 (ip), vehicle: saline 90 % of control

CCNC(=O)N1CC(=O)Nc2ccccc21
inactive: [10] 101 % of control | [11] 96 % of control

COc1ccc(/C=N\Nc2cc(C)nc3ccc(C4CCCCC4)cc23)c2ccccc12
inactive: [7] 99 % of control | [8] 104 % of control | [9] 93 % of control

Nc1nnn(/N=C\c2ccccc2)n1
inactive: dose: 50.0 mg/kg/injection, schedule: Q01DX005 (ip), vehicle: Klucel (hydroxypropylcellulose) (HPC) 92 % of control | dose: 100.0 mg/kg/injection, schedule: Q01DX005 (ip), vehicle: Klucel (hydroxypropylcellulose) (HPC) 92 % of control

Cc1cc(Cl)c2cc3c(cc2n1)CCCC3
inactive: [4] 102 % of control | [5] 109 % of control

CCOC(=O)/C(Cl)=N/Nc1ccccc1
inactive: [10] 97 % of control | [11] 111 % of control

CC1C[C@@H]2OC(=O)C(C)[C@@H]2C(O)[C@@]2(C)C(=O)C=CC12 (stereo partly drawn)
inactive: dose: 1.38 mg/kg/injection, schedule: Q01DX005 (ip), vehicle: Klucel (hydroxypropylcellulose) (HPC) 104 % of control | dose: 2.75 mg/kg/injection, schedule: Q01DX005 (ip), vehicle: Klucel (hydroxypropylcellulose) (HPC) 104 % of control | dose: 5.5 mg/kg/injection, schedule: Q01DX005 (ip), vehicle: Klucel (hydroxypropylcellulose) (HPC) 112 % of control | dose: 11.0 mg/kg/injection, schedule: Q01DX005 (ip), vehicle: Klucel (hydroxypropylcellulose) (HPC) 111 % of control

CCOc1ccc(/C=C(\C(=O)c2ccccc2)S(=O)(=O)c2ccc(OC)cc2)cc1OC
inactive: [10] 92 % of control | [11] 92 % of control

Cc1cc(CSCCc2nc3ccccc3[nH]2)c(O)c(CSCCc2nc3ccccc3[nH]2)c1
inactive: [7] 107 % of control | [8] 93 % of control | [9] 90 % of control
